From patent US5298652A, “N-substituted glycines, inhibitors of phospholipase A2” (Hoffmann-La Roche Inc., priority 1992, dated 1994)

Tests used:
[1] = target: T1, HSF-PLA2 (extracellular PLA2 obtained from human synovial fluid) (Homo sapiens, UniProt P14555); test: Assay for inhibition of HSF-PLA2 in vitro; type: biochemical; conditions: read-out: % Inhib of HSF-PLA2; for inhibition at 5 µM: 5 μM test compound; for inhibition at 1 µM: 1 μM test compound
T1 construct: extracellular enzyme obtained from human synovial fluid; from tissue; host or cells: human synovial fluid (pooled)
T1 sequence (P14555 21-144): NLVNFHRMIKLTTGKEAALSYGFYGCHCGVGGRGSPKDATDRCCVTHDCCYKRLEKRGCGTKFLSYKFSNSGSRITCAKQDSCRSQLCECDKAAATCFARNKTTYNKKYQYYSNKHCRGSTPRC
Description: Assay for Inhibition of HSF-PLA2 In Vitro
The PLA2 used in this test is the extracellular enzyme obtained from human synovial fluid (HSF-PLA2).
The assay for HSF-PLA2 activity was a modification of the described method [Franson R., Dobrow R., Weiss, J., Elsbach P., and Weglick W. B., J. Lipid Res., 19, 18-23 (1978)] which was conducted using [1-^14 C]-oleate-labelled E. coli substrate in excess at a final concentration of 20,000 dpm/ml. This was equivalent to 18.2 mM of cell membrane phospholipid phosphorus and 2×10^9 autoclaved E. coli/ml. The optimal conditions which were developed for the assay of HSF-PLA2 inhibitors are summarized as follows. A total volume of 0.5 ml of reaction mixture typically had the following final composition: substrate (20,000 dpm/ml); enzyme (0.1% HSF, v/v); 2 mM CaCl2; 150 mM Na^+; 50 mM sodium HEPES buffer, pH 7.3; and 1% dimethyl sulfoxide (DMSO, used to solubilize test inhibitors) in the presence or absence of inhibitor. The reaction was initiated by the addition of HSF-PLA2 and duplicate samples of the mixture were incubated in 13×100 mm glass tubes with shaking for 30 minutes at 37° C. The reaction was terminated by the addition of 2.5 ml of chloroform-methanol (1 to 1.5, v/v). The extraction of lipids from the stopped reaction mixture was conducted by the further additions of 0.5 ml of chloroform and 1 ml of water with mixing. After centrifuging, the lower chloroform phase was transferred to smaller glass tubes and the solvent was evaporated to dryness with a nitrogen stream. The extracted lipid residue was redissolved in […] of a solution containing carrier oleic acid (0.2 mg/ml) in chloroform-methanol [9 to 1, v/v]). The whole lipid extract was applied to a preactivated (30 minutes at 110° C.) silica gel-impregnated glass fiber thin layer chromatography sheet (ITLC type SG sheet from Gelman Sciences Inc., Ann Arbor, Mich.) using hexane-acetic acid (100 to 1, v/v) as the developing solvent. This TLC system rapidly (6 minutes) resolved the enzymatically released product, ^14 C-oleic acid, from the unreacted ^14 C-phospholipid substrate. The unsaturated lipids were located on the chromatogram by a brief exposure to iodine vapor. The oleic acid zone (Rf value 0.95) and phospholipid zone (origin) were cut out, chopped into small pieces, shaken with 2 ml of ethanol-water (80 to 20, v/v) and 15 ml of Aquasol and counted for radio-activity. A control incubation of substrate in the absence of HSF-PLA2 was performed in each experiment. The PLA2 activity of the human synovial fluid was corrected for this small control value. […] The specific activity of PLA2 in the pooled human synovial fluid under the optimal assay conditions was 49.2 nmoles [1-^14 C]-oleic aid released hour^-1 mg^-1. The IC50 (μM concentration of test compound that produces 50% inhibition of PLA2 activity) was determined for each test compound.

[2] = system: croton oil-induced mouse ear edema; test: Croton oil mouse ear edema test; type: in vivo, male CD-1 mice; conditions: 1 mg topical, coapplied with croton oil; ear punch weight at 6 hours
Description: Croton Oil Mouse Ear Edema Test
The croton oil-induced mouse ear edema test, a model of irritant-induced contact dermatitis, has been used for evaluation of the PLA2 inhibitors by the topical route of administration. This test was carried out as described in the following references: […]
Twenty five μl of a 1% croton oil solution [dissolved in a mixture of pyridine/water/diethyl ether at a ratio of 5/20/75 (croton oil vehicle)] are applied to the outer side of the right ear of 3-4 week old male CD-1 mice (8 animals per group). The test compounds are dissolved directly in the 1% croton oil solution at various concentrations and coapplied. Control animals receive 25 μl of croton oil vehicle on the right ear. Biopsy punches are removed at 6 hours from the right ear of the animals using a 6 mm skin trephine (Roboz, Washington, D.C.) and the wet weight of the ear punches is determined. The weight of the biopsy punches is a measure of ear inflammation, primarily edema. The data are expressed as percent inhibition relative to control groups.
Statistical analysis of the mean edema values of the control versus the treated groups is performed using Student's t-test. The significance of changes from mean value for vehicle-treated animals is as follows (*p<0.05, **p<0.01, ***p<0.005, ns/not significant).

Row | Compound | inhibition at 5 µM [1] | % Inhib of Croton Oil Mouse Ear Edema (1 mg) [2] | inhibition at 1 µM [1]
1 | CCCCCCCCCCCCCCOc1cccc(C(=O)N(CC(=O)O)CC(=O)O)c1 [Example 5, N-(Carboxymethyl)-N-[3-(tetradecyloxy)benzoyl]glycine] | 13% |  | 
2 | CCCCCCCCCCOc1cccc(C(=O)N(CC(=O)O)CC(=O)O)c1 [Example 6, N-(Carboxymethyl)-N-[3-(decyloxy)benzoyl]glycine] | 8% | 47% | 
3 | CCCCCCCCCCCCCCCCCC(=O)Nc1cccc(C(=O)N(CC(=O)O)CC(=O)O)c1 [Example 9, N-(carboxymethyl)-N-[3-(1-oxooctadecylamino)benzoyl]glycine] | 8% | 20% | 
4 | CCCCCCCCCCCCCCOc1cc(OCCCCCCCCCCCCCC)cc(C(=O)N(CC(=O)O)CC(=O)O)c1 [Example 13, N-(Carboxymethyl)-N-[3,5-bis(tetradecyloxy)benzoyl]glycine] |  | 60% | 27%
5 | CCCCCCCCCCCCCCCCCCOc1cc(OCCCOc2ccccc2)cc(C(=O)N(CC(=O)O)CC(=O)O)c1 [Example 18, N-(Carboxymethyl)-N-[3-[3-(phenoxy)propoxy]-5-(octadecyloxy)benzoyl]glycine] | 72% | 59% | 
6 | CCCCCCCCCCCCCCCCCCOc1cc(OCCCOc2ccc(OC)cc2)cc(C(=O)N(CC(=O)O)CC(=O)O)c1 [Example 20, N-(carboxymethyl)-N-[3-[3-(4-methoxyphenoxy)propoxy]-5-(octadecyloxy)benzoyl]glycine] |  |  | 18%
7 | CCCCCCCCCCCCCCCCCCOc1cc(OCCCOc2cccc([N+](=O)[O-])c2)cc(C(=O)N(CC(=O)O)CC(=O)O)c1 [Example 22, N-(Carboxymethyl)-N-[3-[3-(3-nitrophenoxy)propoxy]-5-(octadecyloxy)benzoyl]glycine] | 60% | 54% | 
8 | CCCCCCCCCCCCCCCCCCOc1cc(OCCCOc2cccc(N)c2)cc(C(=O)N(CC(=O)O)CC(=O)O)c1 [Example 23, N-(Carboxymethyl)-N-[3-[3-(3-aminophenoxy)propoxy]-5-(octadecyloxy)benzoyl]glycine] | 50% | 21% | 
9 | CCCCCCCCCCCCCCCCCCOc1cc(OCCOc2ccc3ccccc3c2)cc(C(=O)N(CC(=O)O)CC(=O)O)c1 [Example 25] | -16% | 44% | 
10 | CCCCCCCCCCCCCCCCCCOc1cc(C(=O)O)cc(C(=O)N(CC(=O)O)CC(=O)O)c1 [Example 30, N-(Carboxymethyl)-N-[3-carboxy-5-(octadecyloxy)benzoyl]glycine] | 23% |  | 
11 | CCCCCCCCCCCCCCCCCCOc1cc(OCC(=O)O)cc(C(=O)N(CC(=O)O)CC(=O)O)c1 [Example 33, N-(Carboxymethyl)-N-[3-(carboxymethoxy)-5-(octadecyloxy)benzoyl]glycine] |  | 71% | 29%
12 | O=C(O)CCCCCCCCCCOc1cc(OCCCCCCCCCCC(=O)O)cc(C(=O)N(CC(=O)O)CC(=O)O)c1 [Example 35, N-(carboxymethyl)-N-[3,5-bis[(10-carboxydecyl)oxy]benzoyl]glycine] | 5% | 50% | 
13 | CCCCCCCCCCCCCCCCCCOc1cc(OCc2ccccc2)cc(C(=O)N(CC(=O)O)CC(=O)O)c1 [Example 38, N-(Carboxymethyl)-N-[3-(octadecyloxy)-5-(phenylmethoxy)benzoyl]glycine] | 55% | 35% | 
14 | CCCCCCCCCCCCCCCCCCOc1cc(O)cc(C(=O)N(CC(=O)O)CC(=O)O)c1 [Example 39, N-(Carboxymethyl)-N-[3-hydroxy-5-(octadecyloxy)benzoyl]glycine] | 20% | 47% | 
15 | CCCCCCCCCCCCCCCCCCOc1cc(C(=O)N(CC(=O)O)CC(=O)O)cc([N+](=O)[O-])c1 [Example 43, N-(carboxymethyl)-N-[3-nitro-5-(octadecyloxy)benzoyl]glycine] | 10% | 48% | 
16 | CCCCCCCCCCCCCCCCCCOc1cc(N)cc(C(=O)N(CC(=O)O)CC(=O)O)c1 [Example 44, N-(Carboxymethyl)-N-[3-amino-5-(octadecyloxy)benzoyl]glycine] | 34% | 35% | 
17 | CCCCCCCCCCCCCCOc1ccc(C(=O)N(CC(=O)O)CC(=O)O)cc1OCCCCCCCCCCCCCC [Example 51, N-(Carboxymethyl)-N-[3,4-bis(tetradecyloxy)benzoyl]glycine] | 38% |  | 
18 | CCCCCCCCCCCCCCCCCCOc1cccc(C(=O)C(=O)N(CC(=O)O)CC(=O)O)c1 [Example 69, N-(Carboxymethyl)-N-[2-[3-(octadecyloxy)phenyl]-1,2-dioxoethyl]glycine] | 57% | 28% | 
19 | CCCCCCCCCCCCCCCCCCOc1cccc(C(=O)NCC(=O)O)c1 [Example 74, N-[3-(Octadecyloxy)benzoyl]glycine] | 23% | 33% | 
20 | CCCCCCCCCCCCCCCCCCOc1cccc(CC(=O)N(CC(=O)O)CC(=O)O)c1 [Example 76, N-(Carboxymethyl)-N-[3-(octadecyloxy)phenylacetyl]glycine] | 45% | 38% | 
21 | CCCCCCCCCCCCCCCCCCOc1cccc(/C=C/C(=O)N(CC(=O)O)CC(=O)O)c1 [Example 78, (E)-N-(carboxymethyl)-N-[3-[(3-octadecyloxy)phenyl]-1-oxo-2-propenyl]glycine] | 68% | 48% | 
22 | CCCCCCCCCCCCCCCCCCOc1cccc(CCC(=O)N(CC(=O)O)CC(=O)O)c1 [Example 79, N-(Carboxymethyl)-N-[3-[(3-octadecyloxy)phenyl]-1-oxopropyl]glycine] | 70% |  | 
